The text below walks through data of PubChem BioAssay AID449745 (Broad Institute, 2010).

Records with an inconclusive call do not appear. Active and inactive are the calls of the source. The rule behind the calls is not given here.

Zinc finger protein mex-5 (Caenorhabditis elegans), sequence (Q9XUB2 whole entry, looked up): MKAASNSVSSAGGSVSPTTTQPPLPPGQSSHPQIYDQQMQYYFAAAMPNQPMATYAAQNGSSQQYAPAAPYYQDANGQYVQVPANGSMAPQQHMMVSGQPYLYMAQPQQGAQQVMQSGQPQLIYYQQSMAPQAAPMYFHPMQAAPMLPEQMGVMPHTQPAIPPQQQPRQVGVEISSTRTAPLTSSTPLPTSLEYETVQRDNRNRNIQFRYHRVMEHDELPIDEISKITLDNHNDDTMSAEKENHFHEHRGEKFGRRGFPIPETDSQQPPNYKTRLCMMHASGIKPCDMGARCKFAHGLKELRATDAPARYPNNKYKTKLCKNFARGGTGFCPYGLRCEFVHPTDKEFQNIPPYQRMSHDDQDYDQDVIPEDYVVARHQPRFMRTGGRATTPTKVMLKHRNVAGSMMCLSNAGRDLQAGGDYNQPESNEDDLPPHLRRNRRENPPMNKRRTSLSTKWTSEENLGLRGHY

The assay concerns the target Zinc finger protein mex-5 (Caenorhabditis elegans) (UniProt Q9XUB2). Briefly: retest of MEX-5 TCR-2 binding inhibitors, confirmation, biochemical, C. elegans, fluorescence polarization, dose retest (AID 449745).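 Note: potency is for blocking Mex-5 binding to labeled TCR2 RNA like unlabeled competitor.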 To be noted: Mex-5 / TCR-2 RNA binding. (In fluorescence polarisation assays a small probe gives low polarisation when free and higher when bound to something large.)
The AC50 is the midpoint of the concentration-response curve, whichever way the signal moves. Turning to `Cc1ccnc(N2C(=O)c3cccc4c([N+](=O)[O-])ccc(c34)C2=O)c1`, the half-maximal activity concentration (AC50) was 14.8 µM. With `Cc1cccc(C)c1NC(=O)/C(C#N)=C/c1ccc(-c2ccc(C(=O)O)cc2)o1`, the AC50 is > 38 µM (inactive). In the case of `CC1(OC(=O)c2ccc(Cl)nc2)C(=O)C=C2C=C(c3ccc(C#N)cc3)OC=C2C1=O` (stereo not given) it was 20 µM. `C[n+]1c2ccccc2nc2ccc(NCCO)cc21`: the AC50 was 30.6 µM.

Turning to `O=C(C1=NN(c2ccccc2)C2C(=O)N(c3ccccc3)C(=O)C12)c1ccccc1` (stereo not given), the AC50 was 32 µM. For the compound `CN1CCN(c2nc(-c3ccccc3)nc(-c3ccccc3)c2C#N)CC1`, the AC50 is > 38 µM (inactive). In the case of `O=C(O)c1ccc(NS(=O)(=O)c2ccc3c(c2)C(=O)c2ccccc2C3=O)cc1` it was 28.4 µM; in that of `O=c1[nH]c(=S)n(-c2ccc(Cl)cc2)c(O)c1C=Nc1ccc(N2CCOCC2)cc1`, 30 µM. As for `Cc1ccc([C@@H]2C3COCC=C3C(C#N)=C(N)C2(C#N)C#N)o1` (stereo not given in full), the figure is > 38 µM (inactive). With `CCOC(=O)c1c(-c2ccccc2)oc2ccc(OCC(=O)NNC(=O)CCC(=O)O)cc12`, the AC50 is 15.1 µM. As for `Cc1ccc(N=Nc2c(O)n(CN3CCOCC3)c3ccccc23)cc1`, the figure is 11.4 µM. Take `O=[As](O)(O)c1ccc(N=Nc2ccc(O)cc2)cc1`: the AC50 was 37.5 µM. As for `CN1/C(=C\C=C2C(=O)NC(=O)NC2=O)C(C)(C)c2ccccc21`, the figure is > 38 µM (inactive); as for `CC1=Nc2cccc3cccc(c23)N1C`, > 38 µM (inactive); as for `COC(=O)CCC(=O)OC1(C)C(=O)C2=CN(Cc3ccco3)C(c3ccc(OC)cc3)=CC2=C(Br)C1=O` (stereo not given), 21.1 µM. In the case of `O=C(CN1C(=O)/C(=C/c2ccco2)SC1=S)Nc1ccc(C(=O)O)c(O)c1`, the AC50 is 24.5 µM.

Turning to `Cc1cc(C(=O)NNC(=O)CCCCC(=O)NNC(=O)c2cc(C)[nH]n2)n[nH]1`, the concentration at half-maximal activity (AC50) is under 0.3 µM. In the case of `O=C(N/N=C/c1cc2c(cc1Cl)OCO2)c1ccccn1` it was > 38 µM (inactive). As to `CCc1nnc(NS(=O)(=O)c2ccc(N=Cc3c(O)n(-c4ccc(Cl)cc4)c(=O)[nH]c3=O)cc2)s1`, the AC50 was > 38 µM (inactive). In the case of `CC(C)CN1CCN(Cc2cccc3ncccc23)CC1CCO` (stereo not given) it was > 38 µM (inactive); in that of `CN(N=Nc1ccc([N+](=O)[O-])cc1)c1ccccc1`, 9.51 µM; in that of `COc1ccc(Cn2c(O)c(/C=N/NC(=O)c3ccccc3O)c(=O)[nH]c2=O)cc1`, 6.41 µM.

Turning to `CN1CC=C2C(C#N)=C(N)C(C#N)(C#N)[C@H](c3ccoc3)[C@H]2C1`, the AC50 was 32.4 µM. As for `O=C(O)c1cc(-c2ccco2)nc2cc3ccccc3cc12`, the figure is > 38 µM (inactive); as for `CCOC(=O)c1ccc(N=Nc2c(C)c(C#N)c(O)[nH]c2=O)cc1`, 13.3 µM. In the case of `O=Cc1ccc2ccc3cccnc3c2n1` it was 30.2 µM; in that of `COc1cc(C(=O)NC(=S)NNC(=O)c2cnccn2)cc(OC)c1OC`, under 0.3 µM. In the case of `CN(C)c1ccc(N=Cc2nc(-c3ccccc3)oc2OC(=O)c2cccc(Br)c2)cc1`, the AC50 is > 38 µM (inactive). Take `COCC(C)N1CCC(Oc2cccc(C(=O)NCCc3ccccc3)c2)CC1` (stereo not given): the AC50 was > 38 µM (inactive). For the compound `Cc1nc2ccccc2n1/N=C/c1ccc([N+](=O)[O-])s1`, the AC50 is > 38 µM (inactive). With `COC/C=C/C1=CC2=CC(=O)C(C)(O)C(=O)C2=CO1` (stereo not given), the AC50 was 13 µM. As for `O=C1/C(=C\c2ccc(Br)cc2)SC(=S)N1NS(=O)(=O)c1ccccc1`, the figure is 17.7 µM; as for `Cc1cccc(-n2c(O)c(C=Nc3ccc4c(c3)OCO4)c3ccccc3c2=O)n1`, 39 µM. In the case of `CC1CCN(Cc2c(O)ccc3c2O/C(=C\c2ccco2)C3=O)CC1`, the half-maximal activity concentration (AC50) was 6.87 µM. As for `O=C(Cc1cccs1)Nc1nnc(SCc2ccc(Br)cc2)s1`, the figure is > 38 µM (inactive); as for `Brc1ccc(C2=CC(c3cccs3)n3ncnc3N2)cc1` (stereo not given), 15.8 µM; as for `CC/C(=N/Nc1cccc(C)c1)c1cnnc(SC)n1`, > 38 µM (inactive). As for `COc1cccc(N=Nc2c(N)[nH][nH]c2=O)c1`, the figure is 10.3 µM; as for `O=C(O)c1cc(O)c2c(c1)[C@@H]([C@H]1c3cc(C(=O)O)cc(O)c3C(=O)c3c(O[C@@H]4O[C@H](CO)[C@@H](O)[C@H](O)[C@H]4O)cccc31)c1cccc(OC3O[C@H](CO)[C@@H](O)[C@H](O)[C@H]3O)c1C2=O` (stereo not given in full), 1.52 µM; as for `CCCCn1c(O)c(N=Nc2ccccn2)c2ccccc21`, 24.2 µM. Take `CCOC(=O)/C(C#N)=C\c1ccc(N2CCN(C/C=C/c3ccccc3)CC2)cc1`: the AC50 is 7.9 µM. In the case of `Cc1c(N=NC2=C(O)CCCC2=O)c(=O)n(-c2ccccc2)n1C`, the AC50 was > 38 µM (inactive). As for `Cc1ccc(-c2cc(C(=O)O)c3cc(Br)ccc3n2)o1`, the figure is > 38 µM (inactive); as for `C#CCN1C(=O)S/C(=C\c2ccc(-c3ccc(Cl)c(C(=O)O)c3)o2)C1=O`, > 38 µM (inactive); as for `O=C(Nc1ccc2nc(-c3ccco3)c(-c3ccco3)nc2c1)N1CCN(c2ccccn2)CC1`, > 38 µM (inactive). For the compound `Nc1nnnn1/N=C/c1cc(Cl)ccc1O`, the AC50 is 37.5 µM. As for `CC(C)N1CCc2c(sc(NC(=O)c3ccc(S(=O)(=O)N4CCCCC4C)cc3)c2C(N)=O)C1` (stereo not given), the figure is > 38 µM (inactive); as for `CCCCN(C(=O)C1=COCCO1)c1c(N)n(Cc2ccccc2)c(=O)[nH]c1=O`, > 38 µM (inactive); as for `Cn1c(=O)c(Nc2ccc(Cl)cc2)c2c3c(cccc31)C(=O)c1ccccc1-2`, 1.63 µM. As to `COc1cccc(OCC(=O)NNC(=O)c2cnccn2)c1`, the AC50 is 0.315 µM. As for `O=c1cc2c(=O)oc3cc(O)c(O)oc3c2c(O)c1O`, the AC50 is 3 µM. For the compound `CC(=O)Nc1ccc(S(=O)(=O)NCC(=O)NNC(=O)c2csc(N3CCOCC3)n2)cc1`, the half-maximal activity concentration (AC50) was 12.7 µM. As for `COC(=O)c1cc(O)c(O)c(O)c1`, the figure is 25.4 µM; as for `COC(=O)/C=C1/S/C(=N/NC(=O)c2ccc(Cl)cc2Cl)NC1=O`, 22.4 µM; as for `CC(=O)Nc1ccc2cc3ccc(NC(C)=O)cc3nc2c1`, 10.9 µM. Consider `CCOC(=O)c1ccc(NC(=O)C(=O)NCc2ccc(/C=C(/C#N)C(=O)NCCOC)o2)cc1`, for which the AC50 was > 38 µM (inactive). As to `Cc1ccc(C(=O)N/N=C\c2cc(Br)c(Br)o2)cn1`, the concentration at half-maximal activity (AC50) was 39.7 µM.

With `COc1cc(C=C2C(=O)c3ccccc3C2=O)cc(OC)c1OC`, the AC50 is 28.4 µM. In the case of `Cn1ncc2c(NNC(=O)c3ccc(Cl)cc3Cl)ncnc21` it was 12.7 µM. As for `CC(C)(O)C(=O)NNC(=S)NCc1ccco1`, the figure is 4.16 µM. In the case of `C/C(=N/Nc1ccc(C(=O)O)cc1)c1ccc(O)c(O)c1O` it was 11.1 µM.

For the compound `Cc1cc[n+](-c2[nH]c(=O)sc2/C=N/N=C(\[O-])c2ccncc2)cc1`, the half-maximal activity concentration (AC50) is 29.4 µM. In the case of `CC(C)(C)OC(=O)NCCCC1=CC2=CC(=O)C(C)(O)C(=O)C2=CO1` (stereo not given) it was 19.3 µM; in that of `CCOC(=O)c1ccc(-c2ccc(/C=C(\C#N)C(=O)NCC3CCCO3)o2)cc1` (stereo not given), > 38 µM (inactive). As to `O=C(O)COc1ccccc1C(Nc1cccnc1)c1cc(Cl)c2cccnc2c1O` (stereo not given), the AC50 was 10.5 µM.

As for `Cc1ccc(C2C(C(=O)c3cccs3)=C(O)C(=O)N2c2nnc(C)s2)cc1` (stereo not given), the concentration at half-maximal activity (AC50) is 2.43 µM. As for `COc1ccccc1CN1CC(C(=O)NCCN(C)CCc2ccccc2)CCC1=O` (stereo not given), the figure is > 38 µM (inactive). Take `O=C1OC(/C(=C\Nc2cc(Cl)ccc2O)[N+](=O)[O-])c2ccccc21` (stereo not given): the concentration at half-maximal activity (AC50) was 12.4 µM.

As for `COc1ccc2cc(/C=C3\SC(=S)NC3=O)c(N3CCOCC3)nc2c1`, the AC50 is 24.1 µM. As for `Cc1cccc2cc3c(N)c(C(=O)N4CCCc5ccccc54)sc3nc12`, the half-maximal activity concentration (AC50) is 19.9 µM.

`O=C(N/N=C/c1c(O)n(Cc2ccccc2)c(=O)[nH]c1=O)c1ccccc1O`: the AC50 was 10.5 µM. As for `O=C(CSc1ncn[nH]1)Nc1c(Br)cc([N+](=O)[O-])cc1Br`, the figure is 14 µM; as for `O=C1CSC(=S)N1/N=C/c1cc(Br)c(O)c(Br)c1`, > 38 µM (inactive).

Take `COc1ccc(OC)c(N2C(=O)NC(=O)/C(=C/c3ccc([N+](=O)[O-])s3)C2=O)c1`: the AC50 was 22 µM. With `O=C(Nc1ccc(S(=O)(=O)Nc2nccs2)cc1)c1ccc(N2C(=O)c3ccccc3C2=O)cc1`, the AC50 is > 38 µM (inactive). As for `O=c1[nH]c(-[n+]2ccccc2)c(/C=N/NC([S-])=Nc2ccccc2)s1`, the figure is 15.1 µM; as for `Nc1nnc(CC(=O)N/N=C/c2cc([N+](=O)[O-])cc(Br)c2O)s1`, 2.69 µM. Turning to `CCCCC1=CC2=C(c3ccco3)C(=O)C(C)(OC(=O)c3ccc(OC)cc3)C(=O)C2=CN1C(CO)CO` (stereo not given), the AC50 is > 38 µM (inactive). In the case of `CN1C(=O)/C(=C/c2cn(CC(=O)N3CCCCC3)c3ccccc23)c2ccccc21` it was > 38 µM (inactive).

As for `CCOC(=O)C(C(=O)OCC)c1cc(Br)c2noc3c2c1C(=O)c1ccccc1-3`, the AC50 is under 0.3 µM. With `O=c1cc[nH]c2c1ccc1c(=O)cc[nH]c12`, the half-maximal activity concentration (AC50) is 25 µM.

Take `O=c1[nH]c(=O)n(Cc2ccccc2)c(O)c1/C=C1\C=Nc2ccccc21`: the concentration at half-maximal activity (AC50) was 29.8 µM. On to `N=c1c(S(=O)(=O)c2ccc(Cl)cc2)cc2c(=O)n3ccccc3nc2n1CC1CCCO1` (stereo not given), for which the AC50 is > 38 µM (inactive). As to `CCOc1cc(/C=C2\C(=O)N(c3cccc(C(=O)O)c3)N=C2C(F)(F)F)ccc1OCC(=O)Nc1ccccc1OC`, the AC50 is 8.68 µM. Turning to `CCOC(=O)C1CCN(c2nc3ccccc3nc2C(C#N)C(=O)OC(C)C)CC1` (stereo not given), the AC50 was > 38 µM (inactive).

`CCCN1CCN(S(=O)(=O)c2cn(C)nc2C)CC1`: the AC50 was 39.9 µM.

In the case of `COc1cc([N+](=O)[O-])ccc1N/C=C/C(=O)c1cccs1`, the AC50 is > 38 µM (inactive). In the case of `CC1C(=O)NN=C1C(=O)N/N=C\c1ccc(O)cc1O` (stereo not given) it was 10.2 µM; in that of `COc1ccc(NC(=S)NNc2ccc(S(=O)(=O)Nc3ccccc3C(=O)O)cc2[N+](=O)[O-])cc1`, 6.28 µM; in that of `COc1ccc(C(=O)N2C(=S)NC(=O)/C2=C\c2ccc(C)cc2)cc1`, > 38 µM (inactive).
